This is an account of results in patent publication US20160221932A1, “Methods and Uses of Melatonin Ligands” (priority 2013, published 2016).

One test concerns SNI rats. In words: spared nerve injury (SNI) model, dynamic plantar aesthesiometer. It counts as in vivo, rat. The note with it: 150 mg/kg s.c. As to the method:
Spared nerve injury (SNI) of the sciatic nerve and measurement of allodynia with the dynamic plantar aesthesiometer. SNI was performed according to the method of Decosterd and Woolf (2000). Rats were anaesthetized with sodium pentobarbital (50 mg/kg i.p.). The sciatic nerve was exposed at mid-thigh level […] to the trifurcation and freed of connective tissue; the three peripheral branches (sural, common peroneal, and tibial nerves) of the sciatic nerve were exposed without stretching nerve structures. Both tibial and common peroneal nerves were ligated and transected together. The sham procedure consisted of the same surgery without ligation and transection of the nerves. Fourteen days after SNI, mechanical allodynia was measured using the dynamic plantar aesthesiometer (Ugo Basile, Varese, Italy). Each rat was placed and allowed to move freely in one of the two compartments of the enclosure positioned on a metal grid surface. A mechanical stimulus was delivered to the plantar surface of the rat's hind paw through the metal grid by a steel filament (Von Frey-type), connected to a movable touch-stimulator unit exerting an increasing force of 3 g per second. The force inducing paw withdrawal was recorded to the nearest 0.1 g. Nociceptive responses for mechanical sensitivity (mechanical withdrawal threshold) were measured in grams before and after vehicle or drug administration by an experimenter blind to the treatments. A single trial at each time point was performed on the ipsilateral hind paw to SNI surgery for each rat. Nociceptive responses for mechanical sensitivity were expressed as mean±SEM (g). Groups of 6-7 rats per treatment were used, with each animal being used for one treatment only.
(§1) Statistical Analysis: Data analysis was done using SigmaPlot 12 (Systat Software, Inc.). Two-way ANOVA for repeated measures was used to analyze data from L5-L6 models using treatments (between) and testing time (within) as factors. One-way ANOVA was used to analyze AUC in the L5-L6 spinal nerves ligation model. One-way ANOVA was used for formalin and hot-plate tests. Post-hoc analyses were performed using Bonferroni t-test comparisons or Student-Newman-Keuls (SNK) test. All data are expressed as mean±Standard Error of the Mean (SEM). P<0.05 was considered significant.

For test [1], the system named is rats with L5-L6 spinal nerves ligation. Kind of test: L5-L6 spinal nerves ligature model, von Frey paw withdrawal threshold. The test is classed as in vivo, rat. Particulars: for AUC of the antiallodynic effect across 8 h: mean±SEM, VEH 36.24±1.8 g. On the procedure:
(§2) Animals: Wistar rats (150-250 g, Charles-River Saint-Constant, Quebec, Canada) were used for the formalin test, hot plate test and L5-L6 spinal nerves ligature model. The animals were housed at constant room temperature and humidity under a 12 h light/dark cycle (lights on at 7 AM). Food and water were available ad libitum.
L5-L6 Spinal Nerves Ligature: Nerve injury results in abnormal pain perception, known as neuropathic pain, which is associated with hyperalgesia (high pain sensibility) and allodynia (pain perception induced by innocuous stimuli) (Campbell and Meyer, 2006). The rat model for neuropathic pain develop by Kim and Chung (Kim and Chung, 1992) was used in which the L5 and L6 spinal nerves were ligated and two weeks later allodynia was measured by paw stimulation with von Frey filaments. Briefly, animals were anesthetized with a mixture of ketamine/xylazine/acepromazine (i.p.). Following surgical preparation and exposure of the dorsal vertebral column, the left L5 and L6 spinal nerves were exposed and tightly ligated with 3.0 chromic catgut suture distal to the dorsal root ganglion. For sham-operated rats, the nerves were exposed but not ligated. The incisions were closed using 3.0 vicryl sutures, and the animals were allowed to recover for 13 days.
On day 14 after surgery, rats were singularly placed in a test chamber (clear plastic, wire mesh-bottomed cage) and allowed to acclimatize for 30-40 min. Von Frey filaments (Stoelting, Wood Dale, Ill., USA) were used to measure the 50% paw withdrawal threshold using the up and down method by (Chaplan et al., 1994). […] Lifting of the paw indicated a positive response and prompted the use of the next weaker filament, whereas absence of paw withdrawal after 5 s indicated a negative response and prompted the next filament of increasing weight. This paradigm continued for four more measurements after the initial change of the behavioral response, or until five consecutive negative (assigned a score of 15 g), or four consecutive positive (assigned a score of 0.25 g) responses. The resulting score were used to calculate the 50% response threshold by using the formula proposed by Dixon et al., 1980.
Allodynia was considered to be present when paw withdrawal thresholds were less than 4 g. (Chaplan et al., 1994). All nerve-ligated rats were verified to be allodynic, responding to a stimulus of less than 4 g. Rats without allodynia were excluded. Following the determination of the basal response, tactile allodynia was assessed at 0.5, 1, 2, 3, 4, 5, 6, 7 and 8 h post-administration for each treatment below described.
[…] […] Another group of rats received only the vehicle (VEH) consisting on a 70% DMSO/saline solution (0.9% NaCl). All treatments were administered in a single subcutaneous injection with a volume of 1 ml. Rats were tested at 0 h (basal withdrawal threshold) and 0.5, 1, 2, 3, 4, 5, 6, 7 and 8 h post-treatment administration.
as §1

Test [2] concerns Wistar rats. In words: formalin test. It counts as in vivo, rat. Particulars: 30 min prior to test. On the procedure:
as §2
Formalin Test: Antinociception was assessed using the formalin test (Dubuisson and Dennis, 1977). Rats were placed in open Plexiglas observation chambers for 60 min to allow them to acclimatize to their surroundings; then they were removed for formalin administration. Rats were gently restrained while the dorsal surface of the right hindpaw was injected with […] of 1% formalin (37% formaldehyde solution further diluted in saline solution) with a 30-gauge needle. The animals were returned to the chambers and nociceptive behavior was observed immediately after formalin injection. Mirrors were placed in each chamber to enable unhindered observation. Licking/biting behavior directed to the formalin injected paw was scored in 5 min intervals considering number and duration of the licking. Cumulative behavior for the total duration of the test as well as the first (0-10 min) and second phase (20-50 min) was then analyzed (Sufka et al., 1998).The initial acute phase (0-10 min) was followed by a relatively short quiescent period, which was then followed by a prolonged tonic response (15-60 min). The first phase is considered to be the result of direct stimulation of nociceptors, whereas inflammation process contributes to phase 2 activity (Hunskaar and Hole, 1987). At the end of the experiment the rats were sacrificed in a CO2 chamber.
as §1

For test [3], the system named is Wistar rats. In words: hot plate test. The test is classed as in vivo, rat. As to the method: Animals: Wistar rats (150-250 g, Charles-River Saint-Constant, Quebec, Canada) were used for the formalin test, hot plate test and L5-L6 spinal nerves ligature model. The animals were housed at constant room temperature and humidity under a 12 h light/dark cycle (lights on at 7 AM). Food and water were available ad libitum. Hot plate test: The hot-plate test was performed by using an electronically controlled hot-plate (Ugo Basile, Italy). The initial temperature was 38° C. A near linear increase in temperature (3° C. per min) was obtained by turning the heating adjustment to maximum. The temperature at which the fast hindpaw lick occurred was recorded as the nociceptive end-point. If no hindpaw lick was observed, the test was terminated at 52° C., and this cut-off value was used in the analysis. The plate was wiped with a wet cloth, and a fan located behind the plate allowed rapid cooling so that testing could be conducted every 7.5 min. Statistical Analysis: Data analysis was done using SigmaPlot 12 (Systat Software, Inc.). Two-way ANOVA for repeated measures was used to analyze data from L5-L6 models using treatments (between) and testing time (within) as factors. One-way ANOVA was used to analyze AUC in the L5-L6 spinal nerves ligation model. One-way ANOVA was used for formalin and hot-plate tests. Post-hoc analyses were performed using Bonferroni t-test comparisons or Student-Newman-Keuls (SNK) test. All data are expressed as mean±Standard Error of the Mean (SEM). P<0.05 was considered significant.
On the technique in general: In hot-plate and tail-flick tests a longer latency is read as antinociception.

For a further test, the target named is T1, human MT2 receptor (Homo sapiens, UniProt P49286).
T1 construct: expressed in transfected cells
T1 sequence (P49286 1-362): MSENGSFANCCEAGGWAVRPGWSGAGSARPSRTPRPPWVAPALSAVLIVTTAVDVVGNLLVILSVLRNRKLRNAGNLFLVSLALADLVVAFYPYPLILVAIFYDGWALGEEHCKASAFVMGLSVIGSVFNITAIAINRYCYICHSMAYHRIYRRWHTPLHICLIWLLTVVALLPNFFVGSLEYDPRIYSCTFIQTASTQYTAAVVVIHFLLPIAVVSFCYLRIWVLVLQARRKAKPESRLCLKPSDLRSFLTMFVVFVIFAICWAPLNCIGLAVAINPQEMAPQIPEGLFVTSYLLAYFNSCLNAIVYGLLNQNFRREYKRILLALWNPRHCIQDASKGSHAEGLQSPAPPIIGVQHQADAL
In words: 2-[125I]iodomelatonin competition binding, human MT2 in CHO cells. Particulars: human MT2 stably expressed in CHO cells; calculated from IC50 by Cheng and Prusoff; read-out: MT2 pKi (converted).

The next test deals with T2, human-cloned MT1 (Homo sapiens, UniProt P48039).
T2 construct: expressed in transfected cells
In words: impedance assay in CHO cells expressing human-cloned MT1 (functional activity). For MT1 Activity: key: A = ago0nist; PA = partial agonist; ANT = antagonits. The test is classed as cell-based.

A further test has as its target T3, human MT1 receptor (Homo sapiens, UniProt P48039).
T3 construct: expressed in transfected cells
Kind of test: 2-[125I]iodomelatonin competition binding, human MT1 in CHO cells. Particulars: human MT1 stably expressed in CHO cells; calculated from IC50 by Cheng and Prusoff; read-out: MT1 pKi (converted).

The target of test [4] is T4, human-cloned MT2 receptors (Homo sapiens, UniProt P49286).
T4 construct: expressed in transfected cells
T4 sequence (P49286 1-362): T1 sequence (P49286 1-362)
In words: cAMP assay in CHO cells expressing human-cloned MT2 (functional activity). For MT2 Activity: key: A = ago0nist; PA = partial agonist; ANT = antagonits. The test is classed as cell-based. For orientation: cAMP levels reflect the balance of adenylyl cyclase and phosphodiesterase activity.

Setting [5] is: 3 mg/kg s.c., listed as Ketoprofen.
[6] abbreviates: 3 mg/kg s.c., listed as ketoprofen.

“Also recorded” adds a separate entry of the source.

T2 sequence (P48039 whole entry): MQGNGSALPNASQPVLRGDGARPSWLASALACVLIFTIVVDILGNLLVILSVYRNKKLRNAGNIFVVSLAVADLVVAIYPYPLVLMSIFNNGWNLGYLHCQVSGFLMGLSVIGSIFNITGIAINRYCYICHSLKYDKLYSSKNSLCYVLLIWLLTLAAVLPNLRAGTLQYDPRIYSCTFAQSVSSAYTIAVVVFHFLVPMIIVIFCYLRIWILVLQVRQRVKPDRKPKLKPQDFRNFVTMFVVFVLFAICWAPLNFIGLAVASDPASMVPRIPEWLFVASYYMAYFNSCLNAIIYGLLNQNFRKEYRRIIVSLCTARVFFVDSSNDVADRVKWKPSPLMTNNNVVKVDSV
T3 sequence (P48039 whole entry): as above

Consider `COc1ccc2[nH]cc(CCNC(C)=O)c2c1` [MLT, N-acetyl-5-methoxytryptamine, reference compound], for which, in the test on SNI rats, the “effect on mechanical allodynia compared with GBP 100 mg/kg” value is “lower magnitude than that produced by GBP”. Further, in test [1] (150 mg/kg s.c., at 2 h post-treatment), the “maximum increase in withdrawal threshold” value was 335 % from baseline. Further, in test [1] (150 mg/kg s.c.), the “AUC of the antiallodynic effect across 8 h” value was 131.75±7.9. The “licking time vs vehicle, first phase” value is given as “decreased the licking time” in the test on Wistar rats [2] (150 mg/kg s.c.) and “decrease in the licking time” with Wistar rats [2] (150 mg/kg s.c., listed as Melatonin). Further, the “licking time vs vehicle, second phase” value in the test with Wistar rats [2] (150 mg/kg s.c.) was “decrease of the licking time; also recorded: decreased the licking time”. Besides, the “licking time vs vehicle, total time” value in the test on Wistar rats [2] (150 mg/kg s.c.) is reported as “decrease in the licking time; also recorded: decreased the licking time”. Moreover, the “withdrawal temperature vs vehicle” value in the test with Wistar rats [3] (150 mg/kg s.c., 30 min post treatment) is given as “significant increase of the withdrawal temperature”; in the test with Wistar rats [3] (150 mg/kg s.c., 1 hour post treatment) it was “increase of withdrawal temperature; also recorded: increased the withdrawal temperature”; in the test with Wistar rats [3] (150 mg/kg s.c., 4 hours post treatment) it was “increase the withdrawal temperature”.

In the case of `CC(=O)NCCN(c1ccccc1)c1cccc(OCCCCc2ccccc2)c1` [5i, N-{2-[(3-pheny/butoxyphenyl)-phenyl-amino]ethyl}acetamide], the Ki on human MT2 receptor was 331 nM; at human MT1 receptor, 35.5 nM. Also, the “activity for the MLT receptor subtype MT1 (in words)” value on human-cloned MT1 (CHO cells) was “antagonist activity”. The “MT1 Activity” value at human-cloned MT1 (intrinsic activity, human MT1 in CHO cells) was “ANT”. The “activity for the MLT receptor subtype MT2 (in words)” value in test [4] (CHO cells) was “antagonist activity”. The “MT2 Activity” value in test [4] (intrinsic activity, human MT2 in CHO cells) is “ANT”.

`CC(=O)Nc1ccc(O)cc1` [ACE, Acetaminophen, reference compound]: the “withdrawal temperature vs vehicle” value in the test on Wistar rats [3] (200 mg/kg s.c., 1 hour post treatment) is listed as “increased the withdrawal temperature”; in the test on Wistar rats [3] (200 mg/kg s.c., 1 hour post treatment, listed as acetaminophen), “increase of withdrawal temperature”; in the test with Wistar rats [3] (200 mg/kg s.c., 4 hours post treatment), “increased the withdrawal temperature”; in the test with Wistar rats [3] (200 mg/kg s.c., 4 hours post treatment, listed as acetaminophen), “increase the withdrawal temperature”.

For the compound `CCC(=O)NC1Cc2ccccc2C(c2ccccc2)C1` (centres unmarked) [4P-PDOT, reference compound], the “effect of pre-treatment with MT2 antagonist on antiallodynic effect of 5p” value in test [1] (4P-PDOT 10 mg/kg 10 min before 5p 20 mg/kg, 8 h of testing) was “blocked the effects of 5p”.

As to `NCC1(CC(=O)O)CCCCC1` [GBP, gabapentin, reference compound], the “maximum withdrawal threshold increase” value in test [1] (100 mg/kg s.c., at 4 h) amounted to 420 % from basal. The “AUC of the antiallodynic effect across 8 h” value in test [1] (100 mg/kg s.c.) was 249.33 ± 22.1 g.

In the case of `CC(C(=O)O)c1cccc(C(=O)c2ccccc2)c1` (centres unmarked) [KET, Ketoprofen, reference compound], the “licking time vs vehicle, first phase” value in the test with Wistar rats [2] (3 mg/kg s.c.) is “decreased the licking time”; in the test on Wistar rats [2] (setting [5]), “decrease in the licking time”; with Wistar rats [2] (setting [6]) it was “decrease in the licking time”. In addition, the figures for the “licking time vs vehicle, second phase” value with Wistar rats [2] (3 mg/kg s.c.), with Wistar rats [2] (setting [5]) and in the test with Wistar rats [2] (setting [6]) were “decreased the licking time”, “decrease of the licking time” and “decrease of the licking time”, respectively. For the same compound, the “licking time vs vehicle, total time” value is “decreased the licking time” in the test with Wistar rats [2] (3 mg/kg s.c.), “decrease in the licking time” in the test with Wistar rats [2] (setting [5]) and “decrease in the licking time” in the test on Wistar rats [2] (setting [6]).
